Measured values reported in patent US20040077676A1 (priority 2003, published 2004).
pIC50: −log10 of the molar value.

Columns and labels:
sciatic nerve crush = assay: Functional recovery in the rat sciatic nerve crush model (semi-quantitative behavioral score); type: in vivo; details: scale 0-4
Protocol: Nine 6-week-old male Sprague-Dawley rats were anesthetized with 2% halothane, the right sciatic nerve was exposed, and the nerve was crushed twice (for a total of 60 s using a No.7 Dumont jeweler's forceps) at the level of the hip. The crush site was marked by tying a sterile 9-0 suture through the epineurial sheath.
Compound (Ia) was dissolved in vehicle comprising 30% dimethylsulfoxide (DMSO):70% saline. Three axotomized rats received subcutaneous daily injections either Compound (Ia) (1 or 5 mg/kg) or an equivalent volume of vehicle (30% DMSO in saline) (5ml/kg)
Animals were examined daily until the day of perfusion (18 days). The following semi-quantitative scale was used to evaluate the functional recovery of the animals:
0: paralysis with the foot turned-out upon walking and the toes curved;
1: ability to right the foot and move the toes;
2: ability to constantly walk on the foot;
For the behavioral analysis, mean values for recovery of function were compared using one-way ANOVA followed by the Newman-Keuls multiple comparisons test for comparison of individual values. For the morphometric analysis, mean values for the number of axons were compared using one-way ANOVA followed by the Newman Keuls multiple comparisons test for comparison of individual values.

FKBP12 = FKBP12 (Homo sapiens, UniProt P62942); assay: Binding assay to FKBP12; details: in vitro
Protocol: The binding assay was performed according to a similar manner to that of Tamura, K., et al (Biochemical arid Biophysical Research Communications, Vol. 202, No. 1, 437-499, 1994).

[1] = system: Mixed lymphocyte reaction (MLR); assay: Mixed lymphocyte reaction (MLR); type: cell-based; details: for pIC50: Lymphocyte, in vitro
Protocol: MLR test was performed according to a similar manner to that of U.S. Pat. No. 4,929,611

[2] = system: Embryonic hippocampal neurons; assay: Neurite (axon) lengths in primary embryonic hippocampal neuron cultures; type: cell-based, rat; details: 10 nM, primary hippocampal cell cultures in rats at 72 hr, mean
Protocol: Embryonic hippocampal neurons were obtained from rat pups on embryonic day 18.5 (“El8.5”), according to Banker and Cowan (Brain Research, 1977, 126: 397425). Briefly, the hippocampal regions were removed, minced, and incubated in 100 I.U. papain at 37° C. for 45 min, and the cells were resuspended in complete neuronal medium: minimal essential medium without L-glutamine (GIBCO, Grand Island, NY), 1.5 ml/100 ml medium of high glucose minimal essential medium (GIBCO), 0.1 ml/100 ml medium of serum extender (Hito +Tm; Collaborative Research Inc, Lexington, Mass.), glutamine (GIBCO), 5% fetal calf serum (GIBCO). Cells were seeded onto coverslips (500 cells/coverslip) coated with poly-L-lysine. The coverslips were inverted onto dishes that had been precoated with a monolayer of cortical astrocytes. Hippocampal neurons (identified by their characteristic polarity and dendrites) were examined daily and randomly photographed (9-12 frames/coverslip) at 72 h. Axon (defined as the longest process) lengths were measured on photographic prints using a Houston Instrument HI-PAD digitizing tablet connected to an IBM XT computer with appropriate software (Bioquant IV, R & M Biometrics, Nashville, TN); only processes more than three-fold of the cell body length were measured. Data from identically treated coverslips (three or four per group) were not different and therefore were combined.

[3] = system: SH-SY5Y human neuroblastoma cells; assay: Neurite lengths in NGF-treated SH-SY5Y neuroblastoma cells; type: cell-based; details: NGF 10 ng/ml alone; SH-SY5Y cells at 168 hr; mean
Protocol: SH-SY5Y human neuroblastoma cells were maintained in DMEM medium (GIBCO) supplemented with 10% fetal calf serum (SIGMA), 50 I.U./ml of penicillin, and 50μg/ml streptomycin (GIBCO) at 37° C. in 7% CO2. Cells were plated in six-well plates at 15,000 cells/well and treated with 0.4 μM aphidicolin (SIGMA). […] Medium was changed at 96 h and replaced with fresh medium for an additional 72 h (total time, 168 h). Duplicate wells were run in all experiments and the data were averaged for each treatment group. Analysis of neurite lengths in SH-SY5Y neuroblastoma cells:
For analysis of process length, cells (20 fields per well) were randomly photographed at 168 h. Neurite lengths were measured on photographic prints using a Houston Instrument HI-PAD digitizing tablet connected to an IBM XT computer with appropriate software (Bioquant IV, R & M Biometrics, Nashville, Tenn.); only those processes greater than two-fold of the cell body length were measured. Data from identically treated wells were not different and were therefore combined.

Chain of FKBP12 (P62942 whole entry, species assumed): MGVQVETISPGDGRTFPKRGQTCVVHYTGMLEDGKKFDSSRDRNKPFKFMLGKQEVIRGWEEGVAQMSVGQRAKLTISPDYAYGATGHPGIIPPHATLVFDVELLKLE

pIC50 (FKBP12) | pIC50 [1] | Compound | Functional Score (sciatic nerve crush; 1 mg/kg s.c. daily, Day 15) | Functional Score (sciatic nerve crush; 1 mg/kg s.c. daily, Day 16) | Functional Score (sciatic nerve crush; 1 mg/kg s.c. daily, Day 17) | Functional Score (sciatic nerve crush; 5 mg/kg s.c. daily, Day 15) | Functional Score (sciatic nerve crush; 5 mg/kg s.c. daily, Day 16) | Functional Score (sciatic nerve crush; 5 mg/kg s.c. daily, Day 17) | immunosuppressive activity ([1]; conclusion in words from MLR result) | Neurite Lengths [2] | Neurite Lengths ([2]; listed as tacrolimus) | Neurite Lengths [3]
> 8.30 | < 7.00 | CO[C@H]1C[C@@H](C)C/C(C)=C/C(CC(C)=O)C(=O)C[C@H](O)[C@@H](C)[C@@H](/C(C)=C/[C@@H]2CC[C@@H](O)[C@H](OC)C2)OC(=O)[C@@H]2CCCCN2C(=O)C(=O)[C@]2(O)OC1[C@@H](OC)C[C@H]2C (stereo partly shown) [Compound (Ia)] | 2.58 ± 0.17 | 2.83 ± 0.17 | 3.08 ± 0.22 | 3.17 ± 0.08 | 3.50 ± 0.00 | 3.50 ± 0.00 | does not have immunosuppressive activity |  |  | 
 | > 8.70 | C=CC[C@@H]1/C=C(\C)C[C@H](C)C[C@H](OC)[C@H]2O[C@@](O)(C(=O)C(=O)N3CCCC[C@H]3C(=O)O[C@H](/C(C)=C/[C@@H]3CC[C@@H](O)[C@H](OC)C3)[C@H](C)[C@@H](O)CC1=O)[C@H](C)C[C@@H]2OC [Tacrolimus, tacrolimus] |  |  |  |  |  |  |  | 423.4 ± 19.50 μm | no significant difference | 
 |  | NGF: nerve growth factor, used at 10 ng/ml to induce process outgrowth |  |  |  |  |  |  |  |  |  | 198.8 ± 8.991 μm
